Series [1] deals with MAC 101 serotype 1. Kind of series: MIC against MAC 101 serotype 1 in culture. It is filed as cell-based, Mycobacterium avium complex. The following applies: strain 101 serotype 1, bacterial culture. How it is done: Among the aminoglycosides, amikacin has been used for treating MAC infection due to its relatively low minimum inhibitory concentration, particularly in the case of certain MAC serotypes. […] Gentamicin would therefore not be expected to be effective in vivo since the toxic level of gentamicin is about 12 μg/ml in the blood, and therefore it is not possible to maintain patients at the inhibitory dose for sustained therapeutic periods. It would be desirable to treat M. avium infection in humans with gentamicin, however, because of the relatively low cost of the drug.

The conditions of series [2]: cited from earlier work.
Series [3] concerns MAC 101 serotype 1. The note with it: cited from earlier work.
Series [4] deals with MAC 101 (serotype 1). Kind of series: Efficacy against MAC infection in liver and spleen of beige mice. It is filed as in vivo, Mycobacterium avium complex; beige mice. The following applies: for bacteriocidal effect in RES organs (liver, spleen), words: day 22, FIGS. 3A, 3B. How it is done:
(§1) Briefly, the animals were infected by I.V. injection of MAC, then treated with control, gentamicin, or gentamicin-liposome formulations 7 days later, with a total of five intravenous injections being given over a 9-day treatment period. The level of viable MAC units (cfu's) in the blood was examined at day 7 (before treatment), day 16 (immediately after the five treatment doses) and day 22. […] For both aminoglycoside drugs, dosages of 0.2 mg and 1.0 mg drug were given.
(§2) Immune deficient "beige" mice (Young, 1986) were infected intravenously with 5×10^6 of MAC 101 (serotype 1) on day 0. After 7 days, blood samples were drawn to quantitate the organisms in the blood prior to treatment. […] On the 16th day, the treated mice were bled and the number of viable MAC units in blood was determined. A week later (day 22), the mice were bled again and sacrificed. The liver and spleen were homogenized and the viable MAC were cultured in 7H10 agar for 10 days for colony counts.

Series [5] concerns serotype 4 strain of MAC. The note with it: Yajko; cited from earlier work.
Series [6] relates to MAC 101 (serotype 1). Kind of series: Efficacy against MAC infection in blood of beige mice. It counts as in vivo, Mycobacterium avium complex; beige mice. The following applies: for effect on viable MAC units in blood: 0.2 mg and 1.0 mg doses, five I.V. injections, day 7 to 22, FIGS. 2A, 2B; for effect on MAC in the blood: higher dose (1.0 mg). On the procedure:
as §1, §2

Series [7] in a line: Tolerability of higher gentamicin dose in MAC-infected mice. The following applies: about 4 mg per 20 gm mouse. It is filed as in vivo. The source says:
This was confirmed by attempting to further reduce MAC infection by administering higher gentamicin dose.

A short description of series [8]: Renal clearance / drug excretion, free vs liposomal. It counts as in vivo. The note with it: after 4 days, mice. On the procedure: To examine the difference in drug clearance between free aminoglycoside and an aminoglycoside-liposome composition, free amikacin and amikacin-liposomes were administered to groups of mice, as above, and the amount of drug excreted by the animals over a several-day period was examined.

Entries after “also recorded” stand apart in the source; their conditions may differ.

On to gentamicin, for which the “relative activity / MIC in MAC culture, amikacin vs gentamicin” value in series [1] was “substantially less active than free amikacin”. Further, in series [2], the “toxic level in the blood” value is listed as “about 12 μg/ml”. Besides, the “minimum inhibitory concentration (MIC)” value in series [3] is 36 µg/mL. Further, the “effect on MAC in the spleen” value in series [4] (both doses) is “moderate killing”. The entries for the “bacteriocidal effect in RES organs (liver, spleen), words” value in series [4] (listed as Free gentamicin) and in series [4] (listed as free gentamicin) were “only modest activity against infection in RES organs” and “about the same degree of bacteriocidal action as free amikacin”, respectively. Further, the “effect on MAC in the liver” value in series [4] (high dose (1.0 mg/kg as printed)) is “moderate killing activity”; in series [4] (low dose (0.2 mg/kg as printed)), “inhibitory effect on the growth of MAC”. Also, in series [5], the MIC is 16 to 32 µg/mL. The “effect on viable MAC units in blood” value in series [6] (listed as Free gentamicin) is given as “no measurable activity against MAC in the bloodstream”; in series [6] (listed as free gentamicin) it was “no appreciable inhibitory effect; also recorded: No appreciable inhibition; also recorded: largely ineffective”. The “effect on MAC in the blood” value in series [6] is recorded as “not gentamicin”. Besides, the “tolerability / animal deaths” value in series [7] was “large percentage of animal deaths”.
As to `NCC[C@H](O)C(=O)N[C@@H]1C[C@H](N)[C@@H](O[C@H]2O[C@H](CN)[C@@H](O)[C@H](O)[C@H]2O)[C@H](O)[C@H]1O[C@H]1O[C@H](CO)[C@@H](O)[C@H](N)[C@H]1O` [amikacin], the “relative activity / MIC in MAC culture, amikacin vs gentamicin” value in series [1] was “nearly an order of magnitude less than that of gentamicin”. For the same molecule, the drug excreted result in series [8] (5760 min) was “about 80%”. The same molecule gave a dose excreted at 96 h in series [8] (mouse, in vivo, iv) of around 80%. Further, the “minimum inhibitory concentration (MIC)” value in series [3] is 2 to 4 µg/mL. The MIC in series [5] was 16 to 32 µg/mL. Further, the “effect on viable MAC units in blood” value in series [6] is “largely ineffective”; in series [6] (listed as free amikacin) it was “Qualitatively similar results”. In addition, the “effect on MAC in the blood” value in series [6] is given as “significant inhibitory effect on MAC in the blood”.

What is called MIC is the smallest concentration in the dilution series that meets the test's criterion for growth inhibition.
